Measured values from the supplement of paper PMC10307832.

What was measured:
Experiment in all cases: relative viability (nuclei count vs DMSO), 5 days (fraction); higher = more cells survive
ABC-1 = system: ABC-1
Procedure, shortened: (§1)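 Relative viability divides the nuclei count in treated wells by that in vehicle wells. Lung cancer cell lines were seeded in 1536-well plates, dosed by pin tool the next day, and fixed and stained after 5 days in one step with final 0.05% Triton X-100, 1% formaldehyde and 1 ug/ml Hoechst. Dosing was a single drug or a fixed anchor-drug dose plus five library-drug doses (not always all listed) in √10 steps, and values are medians of duplicate plates imaged at 4×.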

COR-L23 = system: COR-L23
Procedure, shortened: as §1

EPLC-272H = system: EPLC-272H
Procedure, shortened: as §1

HARA = system: HARA
Procedure, shortened: as §1

HCC-15 = system: HCC-15
Procedure, shortened: as §1

HCC-44 = system: HCC-44
Procedure, shortened: as §1

HOP-62 = system: HOP-62
Procedure, shortened: as §1

LC-2-ad = system: LC-2-ad
Procedure, shortened: as §1

LU99A = system: LU99A
Procedure, shortened: as §1

NCI-H1355 = system: NCI-H1355
Procedure, shortened: as §1

NCI-H1651 = system: NCI-H1651
Procedure, shortened: as §1

NCI-H1915 = system: NCI-H1915
Procedure, shortened: as §1

NCI-H1993 = system: NCI-H1993
Procedure, shortened: as §1

NCI-H2023 = system: NCI-H2023
Procedure, shortened: as §1

NCI-H2085 = system: NCI-H2085
Procedure, shortened: as §1

NCI-H2126 = system: NCI-H2126
Procedure, shortened: as §1

NCI-H2347 = system: NCI-H2347
Procedure, shortened: as §1

NCI-H650 = system: NCI-H650
Procedure, shortened: as §1

NCI-H838 = system: NCI-H838
Procedure, shortened: as §1

PC-14 = system: PC-14
Procedure, shortened: as §1

SW 1573 = system: SW 1573
Procedure, shortened: as §1

UMC-11 = system: UMC-11
Procedure, shortened: as §1

Work on `CCN(CC)CCCCNc1ncc2cc(-c3cc(OC)cc(OC)c3)c(NC(=O)NC(C)(C)C)nc2n1` + CC(C)C[C@H](NC(=O)[C@H](Cc1ccccc1)NC(=O)c1cnccn1)B(O)O [Bortezomib] (partner 0.002 µM) yielded a relative viability (ABC-1; first compound 0.01 µM) of 0.325, a relative viability (ABC-1; first compound 0.03162 µM) of 0.343 and a relative viability (ABC-1; first compound 0.1 µM) of 0.342. The relative viability (ABC-1; first compound 0.3162 µM) was 0.247, the relative viability (ABC-1; first compound 1 µM) was 0.327 and the relative viability (COR-L23; first compound 0.01 µM) was 1.19. For the same compound, the relative viability (COR-L23; first compound 0.03162 µM) was 1.3, the relative viability (COR-L23; first compound 0.1 µM) was 1.13 and the relative viability (COR-L23; first compound 0.3162 µM) was 1.13. For the same compound, the relative viability (COR-L23; first compound 1 µM) was 1.01, the relative viability (EPLC-272H; first compound 0.01 µM) was 1.02 and the relative viability (EPLC-272H; first compound 0.1 µM) was 0.921. The relative viability (EPLC-272H; first compound 0.3162 µM) was 1.03, the relative viability (EPLC-272H; first compound 1 µM) was 0.796 and the relative viability (HARA; first compound 0.01 µM) was 1.19. It also gave a relative viability (HARA; first compound 0.03162 µM) of 1.12, a relative viability (HARA; first compound 0.1 µM) of 1.26 and a relative viability (HARA; first compound 0.3162 µM) of 1.04. The relative viability (HARA; first compound 1 µM) was 0.882, the relative viability (HCC-15; first compound 0.01 µM) was 1.24 and the relative viability (HCC-15; first compound 0.03162 µM) was 1.06. For the same compound, the relative viability (HCC-15; first compound 0.1 µM) was 1.06, the relative viability (HCC-15; first compound 0.3162 µM) was 1.19 and the relative viability (HCC-15; first compound 1 µM) was 0.936. It also gave a relative viability (HCC-44; first compound 0.01 µM) of 0.908, a relative viability (HCC-44; first compound 0.03162 µM) of 0.883 and a relative viability (HCC-44; first compound 0.1 µM) of 1.08. The relative viability (HCC-44; first compound 0.3162 µM) was 1.03, the relative viability (HCC-44; first compound 1 µM) was 0.896 and the relative viability (HOP-62; first compound 0.01 µM) was 0.726. It also gave a relative viability (HOP-62; first compound 0.03162 µM) of 0.888, a relative viability (HOP-62; first compound 0.1 µM) of 0.728 and a relative viability (HOP-62; first compound 0.3162 µM) of 0.717. The relative viability (HOP-62; first compound 1 µM) was 0.79, the relative viability (LC-2-ad; first compound 0.01 µM) was 0.998 and the relative viability (LC-2-ad; first compound 0.03162 µM) was 1.06. The relative viability (LC-2-ad; first compound 0.1 µM) was 1.33, the relative viability (LC-2-ad; first compound 0.3162 µM) was 1.05 and the relative viability (LC-2-ad; first compound 1 µM) was 1. It also gave a relative viability (LU99A; first compound 0.01 µM) of 1.03, a relative viability (LU99A; first compound 0.03162 µM) of 1.16 and a relative viability (LU99A; first compound 0.1 µM) of 1.34. The relative viability (LU99A; first compound 0.3162 µM) was 1.23, the relative viability (LU99A; first compound 1 µM) was 1.13 and the relative viability (NCI-H1355; first compound 0.01 µM) was 1.23. The relative viability (NCI-H1355; first compound 0.03162 µM) was 1.25, the relative viability (NCI-H1355; first compound 0.1 µM) was 1.29 and the relative viability (NCI-H1355; first compound 0.3162 µM) was 1.41. The relative viability (NCI-H1355; first compound 1 µM) was 1.13, the relative viability (NCI-H1651; first compound 0.01 µM) was 1 and the relative viability (NCI-H1651; first compound 0.03162 µM) was 0.94. For the same compound, the relative viability (NCI-H1651; first compound 0.1 µM) was 1.06, the relative viability (NCI-H1651; first compound 0.3162 µM) was 1.03 and the relative viability (NCI-H1651; first compound 1 µM) was 0.902. It also gave a relative viability (NCI-H1915; first compound 0.01 µM) of 1.07, a relative viability (NCI-H1915; first compound 0.03162 µM) of 1.1 and a relative viability (NCI-H1915; first compound 0.1 µM) of 1.18. For the same compound, the relative viability (NCI-H1915; first compound 0.3162 µM) was 1.09, the relative viability (NCI-H1915; first compound 1 µM) was 0.951 and the relative viability (NCI-H1993; first compound 0.01 µM) was 1. It also gave a relative viability (NCI-H1993; first compound 0.03162 µM) of 0.981, a relative viability (NCI-H1993; first compound 0.1 µM) of 1.26 and a relative viability (NCI-H1993; first compound 0.3162 µM) of 1.41. For the same compound, the relative viability (NCI-H1993; first compound 1 µM) was 1.11, the relative viability (NCI-H2023; first compound 0.01 µM) was 0.925 and the relative viability (NCI-H2023; first compound 0.03162 µM) was 1.08. It also gave a relative viability (NCI-H2023; first compound 0.1 µM) of 1.16, a relative viability (NCI-H2023; first compound 0.3162 µM) of 1.13 and a relative viability (NCI-H2023; first compound 1 µM) of 0.968. For the same compound, the relative viability (NCI-H2085; first compound 0.01 µM) was 0.991, the relative viability (NCI-H2085; first compound 0.03162 µM) was 1.03 and the relative viability (NCI-H2085; first compound 0.1 µM) was 1.09. It also gave a relative viability (NCI-H2085; first compound 0.3162 µM) of 1.15, a relative viability (NCI-H2085; first compound 1 µM) of 0.999 and a relative viability (NCI-H2126; first compound 0.01 µM) of 1.23. For the same compound, the relative viability (NCI-H2126; first compound 0.03162 µM) was 1.16, the relative viability (NCI-H2126; first compound 0.1 µM) was 1.22 and the relative viability (NCI-H2126; first compound 0.3162 µM) was 1.19. For the same compound, the relative viability (NCI-H2126; first compound 1 µM) was 1.13, the relative viability (NCI-H2347; first compound 0.01 µM) was 0.855 and the relative viability (NCI-H2347; first compound 0.03162 µM) was 0.864. It also gave a relative viability (NCI-H2347; first compound 0.1 µM) of 1.2, a relative viability (NCI-H2347; first compound 0.3162 µM) of 1.16 and a relative viability (NCI-H2347; first compound 1 µM) of 0.639. For the same compound, the relative viability (NCI-H650; first compound 0.01 µM) was 0.701, the relative viability (NCI-H650; first compound 0.03162 µM) was 0.787 and the relative viability (NCI-H650; first compound 0.1 µM) was 1.1. The relative viability (NCI-H650; first compound 0.3162 µM) was 0.921, the relative viability (NCI-H650; first compound 1 µM) was 0.678 and the relative viability (NCI-H838; first compound 0.01 µM) was 0.793. For the same compound, the relative viability (NCI-H838; first compound 0.03162 µM) was 0.732, the relative viability (NCI-H838; first compound 0.1 µM) was 0.96 and the relative viability (NCI-H838; first compound 0.3162 µM) was 0.9. For the same compound, the relative viability (NCI-H838; first compound 1 µM) was 0.579, the relative viability (PC-14; first compound 0.01 µM) was 0.894 and the relative viability (PC-14; first compound 0.03162 µM) was 0.855. For the same compound, the relative viability (PC-14; first compound 0.1 µM) was 0.947, the relative viability (PC-14; first compound 0.3162 µM) was 0.962 and the relative viability (PC-14; first compound 1 µM) was 0.843. The relative viability (SW 1573; first compound 0.01 µM) was 1.03, the relative viability (SW 1573; first compound 0.03162 µM) was 0.991 and the relative viability (SW 1573; first compound 0.1 µM) was 1.07. The relative viability (SW 1573; first compound 0.3162 µM) was 1.03, the relative viability (SW 1573; first compound 1 µM) was 0.936 and the relative viability (UMC-11; first compound 0.01 µM) was 0.702. For the same compound, the relative viability (UMC-11; first compound 0.03162 µM) was 0.722, the relative viability (UMC-11; first compound 0.1 µM) was 0.73 and the relative viability (UMC-11; first compound 0.3162 µM) was 0.945. The relative viability (UMC-11; first compound 1 µM) was 0.544.
